The values that follow are results of earlier work, collected in patent US8247562B2, “Benzamide derivatives useful as histone deacetylase inhibitors” (Astrazeneca AB, priority 2002, dated 2012).

Data set [1] has as its system rat fibroblasts. The settings on record: Yoshida et al, Exper. Cell Res., 177, 122-131 (1988).
In data set [2] the test system is tumours in mice. The settings on record: Finnin et al., Nature, 401, 188-193 (1999).

Molecules are shown by their SMILES.

As for `CC(/C=C/C(=O)NO)=C\[C@@H](C)C(=O)c1ccc(N(C)C)cc1` [Trichostatin A], in data set [1], the cell cycle arrest entry was “arrest of rat fibroblasts at the G1 and G2 phases of the cell cycle”. Moreover, the formation of tumours result in data set [2] is recorded as “prevent the formation of tumours in mice”.
